Measurements: the NIST ThermoML archive (doi:10.1016/j.tca.2010.07.027)

What was measured:
[1] = excess molar enthalpy (molar enthalpy of mixing); xn = mol fraction of the nth substance listed; conditions: 308.15 K, Liquid, 2-drop calorimeter
[2] = xn = mol fraction of the nth substance listed; conditions: 308.15 K, Liquid; for speed of sound: Frequency=2 MHz, Linear variable-path acoustic interferometer
[3] = 298.15 K, Liquid

CNc1ccccc1 [N-methylaniline] + C1COCO1
Conditions	excess molar enthalpy [kcal/mol]	excess molar volume [m3/mol]	speed of sound [m/s]
[1], x2 = 0.0853	-0.0914	–	–
[1], x2 = 0.1423	-0.13	–	–
[1], x2 = 0.2533	-0.162	–	–
[1], x2 = 0.3765	-0.156	–	–
[1], x2 = 0.4531	-0.141	–	–
[1], x2 = 0.5123	-0.127	–	–
[1], x2 = 0.5976	-0.105	–	–
[1], x2 = 0.6432	-0.0927	–	–
[1], x2 = 0.7123	-0.0749	–	–
[1], x2 = 0.7943	-0.0561	–	–
[1], x2 = 0.8543	-0.0409	–	–
[1], x2 = 0.8912	-0.0321	–	–
[1], x2 = 0.9321	-0.0223	–	–
[1], x2 = 0.9721	-0.00894	–	–
[2], x2 = 0.0415	–	–	1521
[2], x2 = 0.0709	–	-1.8e-08	–
[2], x2 = 0.1211	–	–	1511
[2], x2 = 0.1771	–	-4.5e-08	–
[2], x2 = 0.2001	–	–	1501
[2], x2 = 0.2387	–	-6.3e-08	–
[2], x2 = 0.2754	–	–	1490
[2], x2 = 0.2958	–	-8e-08	–
[2], x2 = 0.3349	–	-8.8e-08	–
[2], x2 = 0.3512	–	–	1477
[2], x2 = 0.3916	–	-9.5e-08	–
[2], x2 = 0.4222	–	–	1463
[2], x2 = 0.4361	–	-1.02e-07	–
[2], x2 = 0.4912	–	-1.1e-07	–
[2], x2 = 0.4943	–	–	1447
[2], x2 = 0.5421	–	–	1436
[2], x2 = 0.5531	–	-1.12e-07	–
[2], x2 = 0.6213	–	–	1415
[2], x2 = 0.6272	–	-1.04e-07	–
[2], x2 = 0.6992	–	-9.3e-08	–
[2], x2 = 0.7003	–	–	1393
[2], x2 = 0.7417	–	-8.8e-08	–
[2], x2 = 0.7832	–	–	1367
[2], x2 = 0.8545	–	-5.1e-08	–
[2], x2 = 0.8632	–	–	1341
[2], x2 = 0.9011	–	–	1329
[2], x2 = 0.9213	–	-3e-08	–
[2], x2 = 0.9632	–	–	1307

Nc1ccccc1 [aniline]
[3], 101.33 kPa
Conditions	mass density [kg/m3]	speed of sound [m/s]
Linear variable-path acoustic interferometer	–	1635
Pycnometric method	1017.2	–

Conditions	vapor or sublimation pressure [kPa]
[3], Closed cell (Static) method	0.0933

Nc1ccccc1 [aniline] + C1COCO1
Conditions	excess molar enthalpy [kcal/mol]	excess molar volume [m3/mol]	speed of sound [m/s]
[1], x2 = 0.0613	-0.0386	–	–
[1], x2 = 0.1622	-0.0988	–	–
[1], x2 = 0.2241	-0.131	–	–
[1], x2 = 0.2774	-0.156	–	–
[1], x2 = 0.3503	-0.184	–	–
[1], x2 = 0.4231	-0.203	–	–
[1], x2 = 0.5511	-0.215	–	–
[1], x2 = 0.5812	-0.214	–	–
[1], x2 = 0.6223	-0.209	–	–
[1], x2 = 0.6816	-0.195	–	–
[1], x2 = 0.7519	-0.171	–	–
[1], x2 = 0.8127	-0.14	–	–
[1], x2 = 0.8928	-0.0887	–	–
[1], x2 = 0.9514	-0.0435	–	–
[2], x2 = 0.0789	–	-1.34e-07	–
[2], x2 = 0.0812	–	–	1587
[2], x2 = 0.1132	–	-1.88e-07	–
[2], x2 = 0.1413	–	–	1576
[2], x2 = 0.2204	–	-3.3e-07	–
[2], x2 = 0.2212	–	–	1557
[2], x2 = 0.2916	–	–	1539
[2], x2 = 0.3111	–	-4.28e-07	–
[2], x2 = 0.3488	–	–	1523
[2], x2 = 0.4281	–	-4.97e-07	–
[2], x2 = 0.4621	–	–	1489
[2], x2 = 0.4916	–	-5.16e-07	–
[2], x2 = 0.5219	–	–	1470
[2], x2 = 0.523	–	-5.17e-07	–
[2], x2 = 0.5928	–	–	1447
[2], x2 = 0.5999	–	-4.93e-07	–
[2], x2 = 0.6342	–	-4.77e-07	–
[2], x2 = 0.6414	–	–	1431
[2], x2 = 0.7114	–	-4.18e-07	–
[2], x2 = 0.7131	–	–	1406
[2], x2 = 0.8001	–	–	1374
[2], x2 = 0.8202	–	-2.94e-07	–
[2], x2 = 0.8715	–	–	1347
[2], x2 = 0.8913	–	-1.9e-07	–
[2], x2 = 0.9213	–	–	1327
[2], x2 = 0.9233	–	-1.38e-07	–
[2], x2 = 0.9711	–	–	1307
[2], x2 = 0.9718	–	-5.25e-08	–
